# “And” between values parts separate entries of the source, which are not always exact repeats. Equal values may be shown once. ± gives the uncertainty stated by the source.
# What was measured:
# [1] = xn = mol fraction of the nth substance listed
smiles,measurement,setting,value
C1COCCO1,viscosity,"293.15 K, 100 kPa",1.286 ± 0.13 mPa·s and 1.221 ± 0.24 mPa·s
same,viscosity,"293.15 K, 101 kPa",1.271 ± 0.012 mPa·s
same,viscosity,"293.15 K, 101.3 kPa",1.297 ± 0.017 mPa·s
same,viscosity,"295.1 K, 101.32 kPa",1.26 ± 0.0099 mPa·s
same,viscosity,"298.15 K, 100 kPa",1.122 ± 0.23 mPa·s
same,viscosity,"298.15 K, 101 kPa",1.155 ± 0.011 mPa·s
same,viscosity,"298.15 K, 101.33 kPa",1.321 ± 0.009 mPa·s and 1.149 ± 0.02 mPa·s
same,viscosity,"301.15 K, 101.32 kPa",1.116 ± 0.0088 mPa·s
same,viscosity,"302.15 K, 101 kPa",1.099 ± 0.0087 mPa·s
same,viscosity,"303.15 K, 100 kPa",1.034 ± 0.21 mPa·s
same,viscosity,"304.15 K, 101.32 kPa",1.046 ± 0.0083 mPa·s
same,viscosity,"306.15 K, 101 kPa",1.029 ± 0.0082 mPa·s
same,viscosity,"307.15 K, 101.32 kPa",0.9913 ± 0.0079 mPa·s
same,viscosity,"308.15 K, 100 kPa",0.999 ± 0.04 mPa·s
same,viscosity,"308.15 K, 101.33 kPa",1 ± 0.007 mPa·s and 0.999 ± 0.025 mPa·s and 0.969 ± 0.016 mPa·s
same,viscosity,"309.15 K, 101 kPa",0.9815 ± 0.0078 mPa·s
same,viscosity,"310.15 K, 101.32 kPa",0.9402 ± 0.0075 mPa·s
same,viscosity,"311.15 K, 101 kPa",0.9497 ± 0.022 mPa·s
same,viscosity,"313.1 K, 101 kPa",0.929 ± 0.015 mPa·s and 0.929 ± 0.016 mPa·s
same,viscosity,"313.15 K, 101.32 kPa",0.939 ± 0.024 mPa·s and 0.8914 ± 0.0072 mPa·s
same,viscosity,"313.15 K, 101.33 kPa",0.9376 ± 0.059 mPa·s
same,viscosity,"316.15 K, 101 kPa",0.8859 ± 0.021 mPa·s
same,viscosity,"318.15 K, 101.33 kPa",0.8714 ± 0.056 mPa·s and 0.901 ± 0.015 mPa·s
same,viscosity,"320.15 K, 101 kPa",0.8276 ± 0.019 mPa·s
same,viscosity,"323.1 K, 101 kPa",0.809 ± 0.013 mPa·s and 0.809 ± 0.014 mPa·s
same,viscosity,"323.15 K, 100 kPa",0.814 ± 0.082 mPa·s
same,viscosity,"323.15 K, 101 kPa",0.8147 ± 0.0082 mPa·s and 0.819 ± 0.0082 mPa·s
same,viscosity,"323.15 K, 101.33 kPa",0.8121 ± 0.053 mPa·s
O,viscosity,"293.15 K, 100 kPa",0.994 ± 0.012 mPa·s and 0.991 ± 0.08 mPa·s
same,viscosity,"295 K, 101.3 kPa",0.975 ± 0.07 mPa·s
same,viscosity,"295.15 K, 101 kPa",0.955 ± 0.009 mPa·s and 0.9548 ± 0.01 mPa·s
same,viscosity,"295.65 K, 100.9 kPa",0.9432 ± 0.029 mPa·s
same,viscosity,"297.15 K, 101 kPa",0.9111 ± 0.0096 mPa·s
same,viscosity,"298.15 K, 100 kPa",0.884 ± 0.071 mPa·s and 0.901 ± 0.055 mPa·s
same,viscosity,"298.15 K, 101.3 kPa",0.876 ± 0.036 mPa·s
same,viscosity,"298.15 K, 101.33 kPa",0.918 ± 0.025 mPa·s
same,viscosity,"299.15 K, 101 kPa",0.8705 ± 0.0092 mPa·s
same,viscosity,"300.15 K, 101 kPa",0.797 ± 0.021 mPa·s
same,viscosity,"300.65 K, 100.9 kPa",0.8417 ± 0.026 mPa·s
same,viscosity,"301.15 K, 101 kPa",0.8327 ± 0.0088 mPa·s
same,viscosity,"302.15 K, 101 kPa",0.917 ± 0.2 mPa·s
same,viscosity,"303.15 K, 100 kPa",0.796 ± 0.064 mPa·s and 0.81 ± 0.04 mPa·s
same,viscosity,"305.15 K, 101 kPa",0.816 ± 0.18 mPa·s and 0.717 ± 0.02 mPa·s
same,viscosity,"305.65 K, 100.9 kPa",0.7567 ± 0.023 mPa·s
same,viscosity,"307.15 K, 101 kPa",0.734 ± 0.0077 mPa·s
same,viscosity,"308.15 K, 101.3 kPa",0.716 ± 0.015 mPa·s and 0.708 ± 0.029 mPa·s and 0.717 ± 0.08 mPa·s
same,viscosity,"309.15 K, 101 kPa",0.7052 ± 0.0074 mPa·s
same,viscosity,"310.65 K, 100.9 kPa",0.6848 ± 0.021 mPa·s
same,viscosity,"311.15 K, 101 kPa",0.6833 ± 0.015 mPa·s and 0.6783 ± 0.0072 mPa·s
same,viscosity,"313.15 K, 100 kPa",0.662 ± 0.053 mPa·s and 0.6579 ± 0.027 mPa·s and 0.66 ± 0.04 mPa·s
same,viscosity,"313.15 K, 101.33 kPa",0.5631 ± 0.021 mPa·s and 0.658 ± 0.018 mPa·s
same,viscosity,"315.15 K, 101 kPa",0.6291 ± 0.0067 mPa·s
same,viscosity,"316.15 K, 101 kPa",0.6189 ± 0.013 mPa·s
same,viscosity,"317.15 K, 101 kPa",0.6067 ± 0.0064 mPa·s
same,viscosity,"318.15 K, 101.3 kPa",0.594 ± 0.013 mPa·s and 0.589 ± 0.024 mPa·s and 0.592 ± 0.08 mPa·s
same,viscosity,"318.15 K, 101.33 kPa",0.6 ± 0.004 mPa·s and 0.6 ± 0.03 mPa·s
same,viscosity,"319.15 K, 101 kPa",0.5856 ± 0.0062 mPa·s
same,viscosity,"320.15 K, 101 kPa",0.5748 ± 0.012 mPa·s
same,viscosity,"320.65 K, 100.9 kPa",0.5706 ± 0.018 mPa·s
same,viscosity,"321.15 K, 101 kPa",0.5656 ± 0.006 mPa·s
same,viscosity,"322.9 K, 101 kPa",0.5516 ± 0.015 mPa·s
same,viscosity,"323.15 K, 100 kPa",0.567 ± 0.007 mPa·s and 0.566 ± 0.045 mPa·s
same,viscosity,"323.15 K, 101 kPa",0.56 ± 0.17 mPa·s and 0.5829 ± 0.008 mPa·s and 0.5538 mPa·s
O=C1CCCO1,viscosity,"293.15 K, 100 kPa",1.92 ± 0.04 mPa·s
same,viscosity,"293.15 K, 101.33 kPa",1.883 ± 0.017 mPa·s
same,viscosity,"298.15 K, 100 kPa",1.73 ± 0.07 mPa·s and 1.73 ± 0.04 mPa·s (3×)
same,viscosity,"298.15 K, 101 kPa",1.74 ± 0.1 mPa·s and 1.764 ± 0.015 mPa·s
same,viscosity,"298.15 K, 101.3 kPa",1.75 ± 0.33 mPa·s
same,viscosity,"298.15 K, 101.33 kPa",1.738 ± 0.013 mPa·s and 1.745 ± 0.016 mPa·s
same,viscosity,"303.15 K, 100 kPa",1.63 ± 0.07 mPa·s and 1.63 ± 0.04 mPa·s (3×) and 1.59 ± 0.03 mPa·s
same,viscosity,"303.15 K, 101.33 kPa",1.765 ± 0.029 mPa·s and 1.61 ± 0.013 mPa·s and 1.612 ± 0.015 mPa·s
same,viscosity,"308.15 K, 100 kPa",1.52 ± 0.06 mPa·s and 1.52 ± 0.03 mPa·s (3×)
same,viscosity,"308.15 K, 101 kPa",1.477 ± 0.024 mPa·s and 1.522 ± 0.013 mPa·s and 1.429 ± 0.1 mPa·s
same,viscosity,"308.15 K, 101.33 kPa",1.498 ± 0.014 mPa·s
same,viscosity,"313.15 K, 100 kPa",1.42 ± 0.06 mPa·s and 1.42 ± 0.03 mPa·s (3×)
same,viscosity,"313.15 K, 101.33 kPa",1.39 ± 0.011 mPa·s
same,viscosity,"318.15 K, 100 kPa",1.35 ± 0.06 mPa·s and 1.35 ± 0.03 mPa·s (3×)
same,viscosity,"318.15 K, 101 kPa",1.286 ± 0.022 mPa·s and 1.33 ± 0.012 mPa·s and 1.234 ± 0.089 mPa·s
same,viscosity,"323.15 K, 100 kPa",1.3 ± 0.05 mPa·s and 1.3 ± 0.03 mPa·s (3×)
same,viscosity,"323.15 K, 101 kPa",1.206 ± 0.021 mPa·s and 1.22 ± 0.08 mPa·s
same,viscosity,"323.15 K, 101.33 kPa",1.213 ± 0.01 mPa·s
C=CC[P+](c1ccccc1)(c1ccccc1)c1ccccc1.[Br-] + OCCOCCO,viscosity,"[1]; 293.15 K, 100 kPa, x1 = 0.05884",57.19 ± 1.8 mPa·s
same,viscosity,"[1]; 293.15 K, 100 kPa, x1 = 0.09089",70.92 ± 4.8 mPa·s
same,viscosity,"[1]; 293.15 K, 100 kPa, x1 = 0.2",213.2 ± 12 mPa·s
same,viscosity,"[1]; 298.15 K, 100 kPa, x1 = 0.05884",43.59 ± 1.3 mPa·s
same,viscosity,"[1]; 298.15 K, 100 kPa, x1 = 0.09089",53.42 ± 3.4 mPa·s
same,viscosity,"[1]; 298.15 K, 100 kPa, x1 = 0.2",150.8 ± 7.2 mPa·s
same,viscosity,"[1]; 303.15 K, 100 kPa, x1 = 0.05884",33.68 ± 0.97 mPa·s
same,viscosity,"[1]; 303.15 K, 100 kPa, x1 = 0.09089",41.11 ± 2.4 mPa·s
same,viscosity,"[1]; 303.15 K, 100 kPa, x1 = 0.2",109.1 ± 4.4 mPa·s
same,viscosity,"[1]; 308.15 K, 100 kPa, x1 = 0.05884",26.69 ± 0.76 mPa·s
same,viscosity,"[1]; 308.15 K, 100 kPa, x1 = 0.09089",32.27 ± 1.8 mPa·s
same,viscosity,"[1]; 308.15 K, 100 kPa, x1 = 0.2",81.11 ± 2.9 mPa·s
same,viscosity,"[1]; 313.15 K, 100 kPa, x1 = 0.05884",21.74 ± 0.6 mPa·s
same,viscosity,"[1]; 313.15 K, 100 kPa, x1 = 0.09089",25.8 ± 1.3 mPa·s
same,viscosity,"[1]; 313.15 K, 100 kPa, x1 = 0.2",61.8 ± 2 mPa·s
same,viscosity,"[1]; 318.15 K, 100 kPa, x1 = 0.05884",17.83 ± 0.48 mPa·s
same,viscosity,"[1]; 318.15 K, 100 kPa, x1 = 0.09089",20.96 ± 1 mPa·s
same,viscosity,"[1]; 318.15 K, 100 kPa, x1 = 0.2",47.98 ± 1.5 mPa·s
same,viscosity,"[1]; 323.15 K, 100 kPa, x1 = 0.05884",14.79 ± 0.39 mPa·s
same,viscosity,"[1]; 323.15 K, 100 kPa, x1 = 0.09089",17.27 ± 0.78 mPa·s
same,viscosity,"[1]; 323.15 K, 100 kPa, x1 = 0.2",37.87 ± 1.2 mPa·s
Brc1ccccc1 + OCCOCCOCCO,viscosity,"[1]; 298.15 K, 101 kPa, x2 = 0.0462",1.316 ± 0.064 mPa·s
same,viscosity,"[1]; 298.15 K, 101 kPa, x2 = 0.1502",2.173 ± 0.1 mPa·s
same,viscosity,"[1]; 298.15 K, 101 kPa, x2 = 0.2493",3.39 ± 0.15 mPa·s
same,viscosity,"[1]; 298.15 K, 101 kPa, x2 = 0.3505",5.164 ± 0.23 mPa·s
same,viscosity,"[1]; 298.15 K, 101 kPa, x2 = 0.4433",7.374 ± 0.3 mPa·s
same,viscosity,"[1]; 298.15 K, 101 kPa, x2 = 0.4974",8.957 ± 0.34 mPa·s
same,viscosity,"[1]; 298.15 K, 101 kPa, x2 = 0.5484",10.66 ± 0.4 mPa·s
same,viscosity,"[1]; 298.15 K, 101 kPa, x2 = 0.6475",14.61 ± 0.52 mPa·s
same,viscosity,"[1]; 298.15 K, 101 kPa, x2 = 0.7514",19.62 ± 0.68 mPa·s
same,viscosity,"[1]; 298.15 K, 101 kPa, x2 = 0.8484",25.03 ± 0.84 mPa·s
same,viscosity,"[1]; 298.15 K, 101 kPa, x2 = 0.937",30.42 ± 1 mPa·s
same,viscosity,"[1]; 308.15 K, 101 kPa, x2 = 0.0462",1.168 ± 0.058 mPa·s
same,viscosity,"[1]; 308.15 K, 101 kPa, x2 = 0.1502",1.769 ± 0.084 mPa·s
same,viscosity,"[1]; 308.15 K, 101 kPa, x2 = 0.2493",2.568 ± 0.12 mPa·s
same,viscosity,"[1]; 308.15 K, 101 kPa, x2 = 0.3505",3.674 ± 0.17 mPa·s
same,viscosity,"[1]; 308.15 K, 101 kPa, x2 = 0.4433",5.002 ± 0.22 mPa·s
same,viscosity,"[1]; 308.15 K, 101 kPa, x2 = 0.4974",5.935 ± 0.25 mPa·s
same,viscosity,"[1]; 308.15 K, 101 kPa, x2 = 0.5484",6.933 ± 0.28 mPa·s
same,viscosity,"[1]; 308.15 K, 101 kPa, x2 = 0.6475",9.221 ± 0.35 mPa·s
same,viscosity,"[1]; 308.15 K, 101 kPa, x2 = 0.7514",12.15 ± 0.44 mPa·s
same,viscosity,"[1]; 308.15 K, 101 kPa, x2 = 0.8484",15.37 ± 0.54 mPa·s
same,viscosity,"[1]; 308.15 K, 101 kPa, x2 = 0.937",18.72 ± 0.64 mPa·s

# — the CheMixHub viscosity set
